From patent US20240317721A1, “PYRAZOLYL DERIVATIVES AS INHIBITORS OF THE KRAS MUTANT PROTEIN” (NOVARTIS AG, priority 2021, published 2024)
pIC50: −log10 of the molar value.

Biological target: KRasG12C (M1-K169, biotinylated on the N-terminus) (Homo sapiens (Human), UniProt P01116, G12C)
Assay: Covalent competition assay: scintillation proximity assay (SPA) quantifying covalent modification of KRASG12C
Assay type: binding
Settings: competition with radiolabeled covalent probe (Compound B/Compound A), 2 hours incubation, 10 nM KRasG12C
In short: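 Test compounds compete with a radiolabeled covalent probe for modification of N-terminally biotinylated KRasG12C(M1-K169):GDP, final 10 nM protein, 25 nM radio-ligand, 475 nM unlabelled ligand, 2 h with agitation in 20 mM Tris-HCl pH 7.5, 150 mM NaCl, 0.1 mM MgCl2, 0.01% Tween-20.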

| SMILES | pIC50 |
| --- | --- |
| C=CC(=O)N1CC2(CC(n3nc(N4CCN(C[C@H]5CCCO5)CC45CCC5)c(-c4c(Cl)c(C)cc5[nH]ncc45)c3C)C2)C1 (single isomer, unassigned) [Example 153a] | < 5.30 |
| C=CC(=O)N1CC2(CC(n3nc(N4CCN(CC5(O)CC5)CC45CCC5)c(-c4c(Cl)c(C)cc5[nH]ncc45)c3C)C2)C1 (single isomer, unassigned) [Example 154a, 1-(6-(4-(5-chloro-6-methyl-1H-indazol-4-yl)-3-(8-((1-hydroxycyclopropyl)methyl)-5,8-diazaspiro[3.5]nonan-5-yl)-5-methyl-1H-pyrazol-1-yl)-2-azaspiro[3.3]heptan-2-yl)prop-2-en-1-one] | < 5.30 |
| C=CC(=O)N1CC2(CC(n3nc(N4CCN(C5COC5)C[C@]4(C)CC)c(-c4c(Cl)c(Cl)cc5[nH]ncc45)c3C)C2)C1 (single isomer, unassigned) [Example 155a] | 5.40 |
| C=CC(=O)N1CC2(CC(n3nc(N4CCN(C5CCOCC5)C[C@@]4(CC)C(F)F)c(-c4c(Cl)c(C)cc5[nH]ncc45)c3C)C2)C1 (single isomer, unassigned) [Example 156a] | < 5.30 |
| C=CC(=O)N1CC2(CC(n3nc(N4CCN(C5CCCOC5)C[C@]4(C)CC)c(-c4c(Cl)c(C)cc5[nH]ncc45)c3C)C2)C1 (single isomer, unassigned) [Example 157a] | < 5.30 |
| C=CC(=O)N1CC2(CC(n3nc(N4CCN(C5CCCOC5)C[C@]4(C)CC)c(-c4c(Cl)c(C)cc5[nH]ncc45)c3C)C2)C1 (single isomer, unassigned) [Example 157b] | < 5.30 |
| C=CC(=O)N1CC2(CC(n3nc(N4CCN(C5COC5)C[C@]4(C)CC)c(-c4c(Cl)c(C)cc5[nH]nc(N)c45)c3C)C2)C1 (single isomer, unassigned) [Example 158b] | 6.76 |
| C=CC(=O)N1CC2(CC(n3nc(N4CCN(C5COCCOC5)C[C@]4(C)CC)c(-c4c(Cl)c(C)cc5[nH]ncc45)c3C)C2)C1 (single isomer, unassigned) [Example 159a] | 6.15 |
| C=CC(=O)N1CC2(CC(n3nc(N4CCN(CC(C)(C)O)CC45CCC5)c(-c4c(Cl)c(C)cc5[nH]ncc45)c3C)C2)C1 (single isomer, unassigned) [Example 160a, 1-(6-(4-(5-Chloro-6-methyl-1H-indazol-4-yl)-3-(8-(2-hydroxy-2-methylpropyl)-5,8-diazaspiro[3.5]nonan-5-yl)-5-methyl-1H-pyrazol-1-yl)-2-azaspiro[3.3]heptan-2-yl)prop-2-en-1-one] | < 5.30 |
| C=CC(=O)N1CC2(CC(n3nc(N4CCN(CC(C)(C)O)C[C@]4(C)CC)c(-c4c(Cl)c(C)cc5[nH]ncc45)c3C)C2)C1 (single isomer, unassigned) [Example 161a] | 6.04 |
| C=CC(=O)N1CC2(CC(n3nc(N4CCN(CCO)CC45CCC5)c(-c4c(Cl)c(C)cc5[nH]ncc45)c3C)C2)C1 (single isomer, unassigned) [Example 162a, 1-(6-(4-(5-chloro-6-methyl-1H-indazol-4-yl)-3-(8-(2-hydroxyethyl)-5,8-diazaspiro[3.5]nonan-5-yl)-5-methyl-1H-pyrazol-1-yl)-2-azaspiro[3.3]heptan-2-yl)prop-2-en-1-one] | < 5.30 |
| C=CC(=O)N1CC2(CC(n3nc(N4CCN(CCO)CC4(C)C)c(-c4c(Cl)c(C)cc5[nH]ncc45)c3C)C2)C1 (single isomer, unassigned) [Example 163a, 1-(6-(4-(5-chloro-6-methyl-1H-indazol-4-yl)-3-(4-(2-hydroxyethyl)-2,2-dimethylpiperazin-1-yl)-5-methyl-1H-pyrazol-1-yl)-2-azaspiro[3.3]heptan-2-yl)prop-2-en-1-one] | < 5.30 |
| C=CC(=O)N1CC2(CC(n3nc(N4CCN(CCO)CC4(C)C)c(-c4c(Cl)c(C)cc5[nH]ncc45)c3C)C2)C1 (single isomer, unassigned) [Example 163b, 1-(6-(4-(5-chloro-6-methyl-1H-indazol-4-yl)-3-(4-(2-hydroxyethyl)-2,2-dimethylpiperazin-1-yl)-5-methyl-1H-pyrazol-1-yl)-2-azaspiro[3.3]heptan-2-yl)prop-2-en-1-one] | 6.94 |
| C=CC(=O)N1CC2(CC(n3nc(N4CCN(CC(C)(C)O)C[C@@]4(C)CC)c(-c4c(Cl)c(C)cc5[nH]ncc45)c3C)C2)C1 (single isomer, unassigned) [Example 164a] | < 5.30 |
| C=CC(=O)N1CC2(CC(n3nc(N4CCN(CC(C)(C)O)C[C@@]4(C)CC)c(-c4c(Cl)c(C)cc5[nH]ncc45)c3C)C2)C1 (single isomer, unassigned) [Example 164b] | 7.25 |
| C=CC(=O)N1CC2(CC(n3nc(N4CCN(CC(C)(C)O)CC45CCCC5)c(-c4c(Cl)c(C)cc5[nH]ncc45)c3C)C2)C1 (single isomer, unassigned) [Example 165a, 1-(6-(4-(5-chloro-6-methyl-1H-indazol-4-yl)-3-(9-(2-hydroxy-2-methylpropyl)-6,9-diazaspiro[4.5]decan-6-yl)-5-methyl-1H-pyrazol-1-yl)-2-azaspiro[3.3]heptan-2-yl)prop-2-en-1-one] | < 5.30 |
| C=CC(=O)N1CC2(CC(n3nc(N4CCN(CC(C)(C)O)C[C@@]4(C)C(F)F)c(-c4c(Cl)c(C)cc5[nH]ncc45)c3C)C2)C1 (single isomer, unassigned) [Example 166a] | < 5.30 |

Now those with a higher pIC50, led by results:

| pIC50 | SMILES |
| --- | --- |
| 7.35 | C=CC(=O)N1CC2(CC(n3nc(N4CCN(C5COC5)CC4(CC)CC)c(-c4c(Cl)c(C)cc5[nH]ncc45)c3C)C2)C1 (single isomer, unassigned) [Example 152b, 1-(6-(4-(5-chloro-6-methyl-1H-indazol-4-yl)-3-(2,2-diethyl-4-(oxetan-3-yl)piperazin-1-yl)-5-methyl-1H-pyrazol-1-yl)-2-azaspiro[3.3]heptan-2-yl)prop-2-en-1-one] |
| 7.72 | C=CC(=O)N1CC2(CC(n3nc(N4CCN(C[C@H]5CCCO5)CC45CCC5)c(-c4c(Cl)c(C)cc5[nH]ncc45)c3C)C2)C1 (single isomer, unassigned) [Example 153b] |
| 7.66 | C=CC(=O)N1CC2(CC(n3nc(N4CCN(CC5(O)CC5)CC45CCC5)c(-c4c(Cl)c(C)cc5[nH]ncc45)c3C)C2)C1 (single isomer, unassigned) [Example 154b, 1-(6-(4-(5-chloro-6-methyl-1H-indazol-4-yl)-3-(8-((1-hydroxycyclopropyl)methyl)-5,8-diazaspiro[3.5]nonan-5-yl)-5-methyl-1H-pyrazol-1-yl)-2-azaspiro[3.3]heptan-2-yl)prop-2-en-1-one] |
| 8.30 | C=CC(=O)N1CC2(CC(n3nc(N4CCN(C5COC5)C[C@]4(C)CC)c(-c4c(Cl)c(Cl)cc5[nH]ncc45)c3C)C2)C1 (single isomer, unassigned) [Example 155b] |
| 8.10 | C=CC(=O)N1CC2(CC(n3nc(N4CCN(C5CCOCC5)C[C@@]4(CC)C(F)F)c(-c4c(Cl)c(C)cc5[nH]ncc45)c3C)C2)C1 (single isomer, unassigned) [Example 156b] |
| 8.22 | C=CC(=O)N1CC2(CC(n3nc(N4CCN(C5CCCOC5)C[C@]4(C)CC)c(-c4c(Cl)c(C)cc5[nH]ncc45)c3C)C2)C1 (single isomer, unassigned) [Example 157c] |
| 8.15 | C=CC(=O)N1CC2(CC(n3nc(N4CCN(C5CCCOC5)C[C@]4(C)CC)c(-c4c(Cl)c(C)cc5[nH]ncc45)c3C)C2)C1 (single isomer, unassigned) [Example 157d] |
| 8.22 | C=CC(=O)N1CC2(CC(n3nc(N4CCN(C5COC5)C[C@]4(C)CC)c(-c4c(Cl)c(C)cc5[nH]nc(N)c45)c3C)C2)C1 (single isomer, unassigned) [Example 158a] |
| 8.05 | C=CC(=O)N1CC2(CC(n3nc(N4CCN(C5COCCOC5)C[C@]4(C)CC)c(-c4c(Cl)c(C)cc5[nH]ncc45)c3C)C2)C1 (single isomer, unassigned) [Example 159b] |
| 7.57 | C=CC(=O)N1CC2(CC(n3nc(N4CCN(CC(C)(C)O)CC45CCC5)c(-c4c(Cl)c(C)cc5[nH]ncc45)c3C)C2)C1 (single isomer, unassigned) [Example 160b, 1-(6-(4-(5-Chloro-6-methyl-1H-indazol-4-yl)-3-(8-(2-hydroxy-2-methylpropyl)-5,8-diazaspiro[3.5]nonan-5-yl)-5-methyl-1H-pyrazol-1-yl)-2-azaspiro[3.3]heptan-2-yl)prop-2-en-1-one] |
| 8.10 | C=CC(=O)N1CC2(CC(n3nc(N4CCN(CC(C)(C)O)C[C@]4(C)CC)c(-c4c(Cl)c(C)cc5[nH]ncc45)c3C)C2)C1 (single isomer, unassigned) [Example 161b] |
| 7.57 | C=CC(=O)N1CC2(CC(n3nc(N4CCN(CCO)CC45CCC5)c(-c4c(Cl)c(C)cc5[nH]ncc45)c3C)C2)C1 (single isomer, unassigned) [Example 162b, 1-(6-(4-(5-chloro-6-methyl-1H-indazol-4-yl)-3-(8-(2-hydroxyethyl)-5,8-diazaspiro[3.5]nonan-5-yl)-5-methyl-1H-pyrazol-1-yl)-2-azaspiro[3.3]heptan-2-yl)prop-2-en-1-one] |
| 7.59 | C=CC(=O)N1CC2(CC(n3nc(N4CCN(CC(C)(C)O)CC45CCCC5)c(-c4c(Cl)c(C)cc5[nH]ncc45)c3C)C2)C1 (single isomer, unassigned) [Example 165b, 1-(6-(4-(5-chloro-6-methyl-1H-indazol-4-yl)-3-(9-(2-hydroxy-2-methylpropyl)-6,9-diazaspiro[4.5]decan-6-yl)-5-methyl-1H-pyrazol-1-yl)-2-azaspiro[3.3]heptan-2-yl)prop-2-en-1-one] |
| 7.29 | C=CC(=O)N1CC2(CC(n3nc(N4CCN(CC(C)(C)O)C[C@@]4(C)C(F)F)c(-c4c(Cl)c(C)cc5[nH]ncc45)c3C)C2)C1 (single isomer, unassigned) [Example 166b] |
